Where two headings read alike, the source gives them in different places. No end group written: not given here.
How the values were obtained:
[1] = system: embryonic rat spinal motor neurons; settings: ref Bilak et al., 2002; cited from earlier work
Text: Axotomised RGCs are not viable unless treated with neurotrophic factors such as brain-derived neurotrophic factor, ciliary neurotrophic factor and glial cell line-derived factor ([Ahmed et al., 2006b; Benowitz and Yin, 2007; Watanabe et al., 2003; Yip and So, 2000]). Recently, we confirmed that, after optic nerve crush (ONC), PEDF is RGC neuroprotective and axogenic ([Vigneswara et al., 2013]), whilst other neuroprotective and anti-angiogenic N-terminal fragments of the native peptide exist ([Bilak et al., 2002; Gvritishvili et al., 2010; Li et al., 2006; Mirochnik et al., 2009]) including the ...

[2] = Stability in culture media and on long-term storage; settings: no data shown
[3] = system: retinal ganglion cells (RGCs); assay: RGC survival after optic nerve crush (FluroGold backfilling, retinal wholemounts); type: in vivo, rat; settings: weekly intravitreal injection, 2.68 nM versus 1.88 nM, 21 days after ONC
Method: (§1) In a separate set of experiments comprising the same treatment groups, 6 rats/treatment (i.e. 12 eyes/optic nerves/treatment) were used to evaluate RGC axon regeneration by immunostaining with growth-associated protein-43 (GAP-43) in the optic nerve.
In further experiments, 12 rats (24 eyes/optic nerves)/treatment received 1.88 nM PEDF-34 eye drops daily. Six rats (12 eyes)/treatment were used to assess RGC survival at 21 days using FG backfilling, whilst the remaining 6 rats (12 eyes/optic nerves)/treatment were used to evaluate RGC axon regeneration at 21 days by GAP-43 immunohistochemistry. […]
Nineteen days after ONC, FG (Cambridge Biosciences, Cambridge, UK) was injected into the optic nerve, between the lamina cribrosa and the ONC site ([Vigneswara et al., 2013, 2014]). […] The identity of individual retinae was anonymised by a second investigator before image capture using a Zeiss epifluorescent microscope and the number of FG^+ RGCs counted in ImagePro Version 6.0 (Media Cybernetics) from captured images of 12 rectangular areas, 3 from each quadrant, placed at radial distances from the centre of the optic disc of the inner (1/6 eccentricity), midperiphery (1/2 eccentricity) and outer retina (5/6 eccentricity). The mean densities of FG^+ RGCs/mm^2 for each retina were determined.

RGC axons = assay: RGC axon regeneration after optic nerve crush (GAP-43 immunohistochemistry of optic nerve); type: in vivo, rat; settings: 21 days after ONC; for number of GAP-43+ axons distal from the lesion site: daily eye drops 1.88 nM; for number of GAP-43+ axons in distal optic nerve stump: weekly intravitreal 1.88 nM
Method: as §1
In further experiments, 12 rats (24 eyes/optic nerves)/treatment received 1.88 nM PEDF-34 eye drops daily. Six rats (12 eyes)/treatment were used to assess RGC survival at 21 days using FG backfilling, whilst the remaining 6 rats (12 eyes/optic nerves)/treatment were used to evaluate RGC axon regeneration at 21 days by GAP-43 immunohistochemistry.
All animal procedures were licenced and approved by the United Kingdom Home Office and the University of Birmingham ethical review committee and conformed to the Federation of European Laboratory Animal Associations (FELASA) guidelines. Optic nerves were exposed surgically in anaesthetised adult female Sprague–Dawley rats (170–220 g) through a supraorbital approach and crushed bilaterally using calibrated watchmakers forceps, 2 mm from the lamina cribrosa as described by us previously ([Vigneswara et al., 2013, 2014]).
Either PBS, or 0.268, 0.67, 1.34, 1.88, or 2.68 nM PEDF dissolved in 5 μl of sterile PBS was injected intravitreally immediately after ONC (0 days) and repeated at 7 and 14 days after ONC with the same doses of PEDF. […] Animals survived for 19 days before FG back-labelling and killing by rising CO2 levels 2 days later, and eyes/optic nerves harvested for retinal FG wholemounts.
Animals were killed with an overdose of CO2 and intracardially perfused with 4% formaldehyde, eyes and optic nerves were immersion fixed in 4% formaldehyde for a further 2 h before cryoprotection in a graded series of sucrose. Eyes and optic nerves were embedded in optimal cutting temperature (OCT) compound (Raymond A. Lamb, Eastbourne, UK) and stored at − 80 °C. Subsequently, 15 μm-thick parasagittal eye or longitudinal optic nerve sections were cut using a cryostat (Brights Instruments, Huntingdon, UK), adhered onto glass slides and stored at − 20 °C until required.
Immunohistochemistry was performed as described by us previously ([Vigneswara et al., 2013, 2014]). Briefly, sections were thawed, washed at RT in PBS and permeabilised. Non-specific binding sites were blocked in 3% bovine serum albumin (BSA) containing 0.1% Triton X-100 and then sections were incubated in primary antibody diluted in PBS containing 3% BSA and 0.05% Tween-20, overnight at 4 °C (16–18 h). Monoclonal anti-GAP-43 antibody (1:500 dilution; Invitrogen) stained regenerating axons in optic nerve sections (Table 1). […] Sections were then washed in PBS and incubated with either Alexa Fluor 488 or Texas Red-labelled secondary antibodies (1:400 dilution; Invitrogen) for 1 h at RT, washed in PBS, mounted in Vectamount containing DAPI (Vector Laboratories) and examined with a Zeiss Axioplan 2 fluorescent microscope, equipped with an AxioCam HRc camera and Axiovision software. The negative control sections were used to set the background threshold levels of fluorescence before image capture.
Regenerating axons in the optic nerve were quantified using previously published methods ([Leon et al., 2000; Lorber et al., 2009; Vigneswara et al., 2013, 2014]). […] Briefly, an observer blinded to the identity of the slides […] through each nerve (n = 6 rats/12 optic nerves/treatment).

[4] = single eye drop, ELISA

DPFFKVPVNKLAAAVSNFGYDLYRVRSSTSPTTN [PEDF-34]
neuroprotection of embryonic rat spinal motor neurons [1]: not neuroprotective
stability in culture media ([2]; PEDF-34 compared with PEDF-44): equally stable
neurotrophic properties after long-term storage [2]: retained their neurotrophic properties
RGC survival on increasing the dose [3]: did not improve
number of GAP-43+ axons distal from the lesion site (RGC axons; 200 μm distal, n = 6 rats/12 optic nerves): 4049 ± 355 axons
number of GAP-43+ axons distal from the lesion site (RGC axons; 500 μm distal): 2893 ± 315 axons
number of GAP-43+ axons distal from the lesion site (RGC axons; 1000 μm distal): 2043 ± 120 axons
number of GAP-43+ axons distal from the lesion site (RGC axons; 1500 μm distal): 1285 ± 126 axons
number of GAP-43+ axons distal from the lesion site (RGC axons; 2000 μm distal): 884 ± 139 axons
number of GAP-43+ axons distal from the lesion site (RGC axons; 2500 μm distal): 582 ± 155 axons
number of GAP-43+ axons in distal optic nerve stump (RGC axons; 200 μm from the lesion site, n = 6 rats/12 optic nerves): 2038 ± 234 axons
number of GAP-43+ axons in distal optic nerve stump (RGC axons; 500 μm from the lesion site): 1733 ± 237 axons
number of GAP-43+ axons in distal optic nerve stump (RGC axons; 1000 μm from the lesion site): 1462 ± 175 axons
number of GAP-43+ axons in distal optic nerve stump (RGC axons; 1500 μm from the lesion site): 945 ± 100 axons
number of GAP-43+ axons in distal optic nerve stump (RGC axons; 2000 μm from the lesion site): 79 ± 44 axons
level of total PEDF in the retina ([4]; 1.88 nM dose (peak), 0.5 h): 0.18 ± 0.007 nM
level of total PEDF in the vitreous ([4]; 1.88 nM dose (peak), 0.5 h, 6 animals (12 eyes)): 0.42 ± 0.01 nM
peak level of total PEDF in the retina ([4]; 4 h): 0.24 ± 0.005 nM
peak level of total PEDF in the vitreous ([4]; 4 h): 0.39 ± 0.004 nM
peak level of total PEDF in the retina ([4]; 24 h): 0.12 ± 0.002 nM
peak level of total PEDF in the vitreous ([4]; 24 h): 0.21 ± 0.004 nM

— paper PMC4604765, “Eye drop delivery of pigment epithelium-derived factor-34 promotes retinal ganglion cell neuroprotection and axon regeneration” (Molecular and Cellular Neurosciences, 2015)
